Where a name gives a salt, the structure may show the parent alone.
Columns and labels:
[1] = test system: Dextran Sodium Sulfate-Induced Colitis in Mice; experiment: Dextran sodium sulfate-induced colitis in mice; assay type: in vivo, BALB/C male mice; settings: for Length of large intestine / myeloperoxidase activity in large intestine: DSS colitis, average ± standard error
Experimental: Colitis was induced in BALB/C male mice by allowing animals To drink a5% aqueous solution of dextran sodium sulfate (DSS) (average molecular weight=5000) for 7 days [Kitajima, S. et. al., Exp Anim, Vol. 49, No. 1: 9-15 (2000)]. KRP-203 dissolved in distilled water (at 0.01, 0.03 and 0.1 mg/kg) was orally administered once a day for 8 days, starting the day before the administration of DSS solution. One group was administered distilled water as a placebo.
8 days after the start of the DSS period, mice were anesthetized With diethylether and sacrificed by cervical dislocation. The large intestine (the segment from colon to anus) was removed from each animal. Because it is known that the ingestion of DSS solution causes colitis in mice that causes a decrease in the length of large intestine [Okayasu, I. et. al., Gastroenterology, Vol. 98: 694-702 (1990)], the length of the large intestine from the colon to anus was measured with a caliper. The large intestine was then cut open longitudinally to expose the lumen and the content was washed off with physiological saline. The specimens were assayed and compared for the activity of myeloperoxidase, a marker of inflammation in colitis [Grisham, M B. et. al., Methods Enzymol, Vol. 186: 729-742 (1990)]. […]
Tacrolimus was suspended in a 0.5% aqueous solution of carboxymethylcellulose sodium (CMC-Na) (at 3 mg/kg) and was administered once a day for 8 days, starting the day before the start of the DSS period. One group was administered 0.5% aqueous CMC-Na solution as a placebo. The increase in the myeloperoxidase activity in large intestine was suppressed by 37% in the 3 mg/kg group as compared to the placebo group.

[2] = test system: IL-10 knockout mice; experiment: Effect on colitis in IL-10 knockout mice (histological score of large intestine); assay type: in vivo, B6.129P2-IL10<tm1Cgn>/J (IL-10 knockout) mice; settings: 0.1 mg/kg orally once a day for 4 weeks; sum of proximal, middle and distal large intestine scores; average ± standard error
Experimental: B6.129P2-IL10^<tm1Cgn>/J (IL-10 knockout) mice (male, 5-6 week old) were obtained for the test. KRP-203 dissolved in distilled water was orally administered at a dose of 0.1 mg/kg once a day for 4 weeks, starting 8 weeks after the animals were obtained. One group was administered distilled water alone as a placebo. Following the administration period, the animals were dissected to remove large intestine, which was then fixed in formalin. Subsequently, tissue slices were prepared from the formalin-fixed large intestine and were stained with hematoxylin and eosin. The proximal, middle, and distal segments of the large intestine were then histologically scored according to the standard procedure (Berg D J, et al., Gastroenterology, 123: 1527-1542 (2002)). The scores for the three segments were added together to determine the histological scores for individual animals. The results are given in average ±standard error.

[3] = 0.01 mg/kg orally once a day for 8 days
[4] = 0.03 mg/kg orally once a day for 8 days
[5] = 0.1 mg/kg orally once a day for 8 days

| SMILES | suppression of the increase in the myeloperoxidase activity in large intestine as compared to the placebo group ([1]; 0.01 mg/kg group) | Length of large intestine [1, 3] | myeloperoxidase activity in large intestine [1, 3] | suppression of the increase in the myeloperoxidase activity in large intestine as compared to the placebo group ([1]; 0.03 mg/kg group) | Length of large intestine [1, 4] | myeloperoxidase activity in large intestine [1, 4] | suppression of the increase in the myeloperoxidase activity in large intestine as compared to the placebo group ([1]; 0.1 mg/kg group) | Length of large intestine [1, 5] | myeloperoxidase activity in large intestine [1, 5] | Histological Score [2] | suppression of the increase in the myeloperoxidase activity in large intestine as compared to the placebo group ([1]; 3 mg/kg group, suspended in 0.5% CMC-Na, once a day for 8 days) |
| --- | --- | --- | --- | --- | --- | --- | --- | --- | --- | --- | --- |
| NC(CO)(CO)CCc1ccc(Sc2cccc(OCc3ccccc3)c2)cc1Cl [KRP-203, 2-amino-2-[4-(3-benzyloxyphenylthio)-2-chlorophenyl]ethyl-1,3-propanediol hydrochloride] | 51% | 67.4 ± 1.4 mm | 55.8 ± 16.2 U/g protein | 69% | 72.7 ± 1.5 mm | 36.8 ± 5.9 U/g protein | 62% | 71.4 ± 1.4 mm | 44.4 ± 6.4 U/g protein | 0.3 ± 0.2 | – |
| C=CC[C@@H]1/C=C(\C)C[C@H](C)C[C@H](OC)[C@H]2O[C@@](O)(C(=O)C(=O)N3CCCC[C@H]3C(=O)O[C@H](/C(C)=C/[C@@H]3CC[C@@H](O)[C@H](OC)C3)[C@H](C)[C@@H](O)CC1=O)[C@H](C)C[C@@H]2OC [Tacrolimus, tacrolimus, reference compound] | – | – | – | – | – | – | – | – | – | – | 37% |
